Results from patent US20220177538A1, “CO-AGONISTS AT GLP-1 AND GIP RECEPTORS SUITABLE FOR ORAL DELIVERY” (Novo Nordisk A/S, priority 2020, published 2022).
pEC50: −log10 of the molar value. Where two headings read alike, the source gives them in different places. Marks after values point to notes of the source that are not given here. Starred links: 1 amine or outer side, 2 acyl side, 3 side chain; linkers in the order of their positions; H or OH if unused. Non-standard residues stand in square brackets, D forms with d. Residues, ends and D or L forms follow the SMILES beside them. Groups on a side chain read outwards from the residue. *: point of attachment. C18 diacid = O=C(O)CCCCCCCCCCCCCCCCC(=O)*; γGlu = O=C(O)[C@H](CCC(=O)[*:2])N[*:1]; εLys = N[C@@H](CCCCN[*:1])C(=O)[*:2]; Aib = CC(C)(N)C(=O)O

Tests used:
human GIP receptor = target: T1, human GIP receptor (Homo sapiens, UniProt P48546); assay: In vitro functional potency, CRE luciferase reporter, whole BHK cells (hGIPR); format: cell-based; details: BHK CRE luc2P hGIPR cells
T1 construct: expressed in transfected cells; host or cells: BHK (parent line BHKTS13), clone BHK CRE luc2P hGIPR
T1 sequence (P48546 22-466): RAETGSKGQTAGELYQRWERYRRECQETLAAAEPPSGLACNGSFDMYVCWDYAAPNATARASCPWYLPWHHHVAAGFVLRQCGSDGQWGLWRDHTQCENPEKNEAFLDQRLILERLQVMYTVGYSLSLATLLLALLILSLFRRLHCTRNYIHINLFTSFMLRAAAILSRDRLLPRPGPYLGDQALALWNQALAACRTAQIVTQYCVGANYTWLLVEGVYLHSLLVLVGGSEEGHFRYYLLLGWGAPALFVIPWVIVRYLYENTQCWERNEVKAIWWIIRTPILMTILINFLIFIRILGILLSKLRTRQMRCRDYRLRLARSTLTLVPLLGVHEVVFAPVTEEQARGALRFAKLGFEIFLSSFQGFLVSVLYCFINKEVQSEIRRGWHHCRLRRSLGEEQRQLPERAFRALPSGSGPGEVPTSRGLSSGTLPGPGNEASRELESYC
Procedure, shortened: (§1)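 Potencies are replicate means (n≥2) from non-linear log(agonist) vs response fits of CRE-driven luminescence. Cells were overnight-plated BHK CRE luc2P lines transfected with human GIPR or GLP-1R, 5000/well.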

human GLP-1 receptor = human GLP-1 receptor (Homo sapiens, UniProt P43220); assay: In vitro functional potency, CRE luciferase reporter, whole BHK cells (hGLP-1R); format: cell-based; design: expressed in transfected cells; host or cells: BHK (parent line BHKTS13), clone BHK CRE luc2P hGLP-1R; details: BHK CRE luc2P hGLP-1R cells
Chain of human GLP-1 receptor (P43220 24-463): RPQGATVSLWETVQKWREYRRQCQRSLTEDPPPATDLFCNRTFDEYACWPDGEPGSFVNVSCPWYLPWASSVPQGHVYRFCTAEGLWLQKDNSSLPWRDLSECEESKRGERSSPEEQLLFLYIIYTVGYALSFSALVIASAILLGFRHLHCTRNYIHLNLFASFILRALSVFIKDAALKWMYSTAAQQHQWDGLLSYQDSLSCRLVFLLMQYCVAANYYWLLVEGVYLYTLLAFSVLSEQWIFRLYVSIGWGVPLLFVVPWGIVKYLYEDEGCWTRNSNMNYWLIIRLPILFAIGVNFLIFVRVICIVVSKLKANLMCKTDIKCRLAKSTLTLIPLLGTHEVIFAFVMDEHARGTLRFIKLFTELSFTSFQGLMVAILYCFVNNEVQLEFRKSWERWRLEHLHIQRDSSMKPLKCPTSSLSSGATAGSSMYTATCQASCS
Procedure, shortened: as §1

[1] = Pharmacokinetic study in dogs after oral dosing of tablets with SNAC; format: in vivo, Beagle dogs
Description: The purpose of this example is to determine the half-life and plasma exposure in vivo of the compounds of the present invention after p.o. administration to beagle dogs, i.e. the terminal half-life and concentration of test substance that reaches circulation with time. This is done in a pharmacokinetic (PK) study, where these parameters of the compound in question are determined. By terminal half-life is generally meant the period of time it takes to halve a certain plasma concentration, measured after the initial distribution phase.
The amount of SNAC in the tablet composition was 100-300 mg, the amount of magnesium stearate in the tablet composition was 7.7 mg, and the target amount of each test substance in the tablet composition was 3-4 mg.
Male beagle dogs, 1-7 years of age and weighing 9-17 kg during the study period, were included in the study. The dogs were dosed in a fasting state. The dogs were group housed in pens (12 hours light: 12 hours dark), and fed individually and restrictedly once daily with Royal Canin Medium Adult dog food (Royal Canin Products, China Branch, or Brogaarden A/S, Denmark). The dogs were used for repeated PK studies with a suitable wash-out period between successive dosing. An appropriate acclimatization period was given prior to initiation of the first PK study. All handling, dosing, and blood sampling of the animals were performed by trained and skilled staff. Before the studies, the dogs were fasted overnight and from 0 to 4 hours after dosing. The dogs were restricted to water 1 hour before dosing until 4 hours after dosing, but otherwise had ad libitum access to water during the whole period.
The compositions were administered by a single oral dosing to the dogs in groups of 6-8 dogs. […] The mouth was then closed, and 10 mL of tap water was given by syringe or gavage to facilitate swallowing of the tablet.
One blood sample was drawn before dosing, and additional samples were drawn at predefined time points after dosing for up to 240 hours, such as up to 10 hours, to adequately cover the full plasma concentration-time absorption profile of the test substance. For each blood sample time point, approximately 0.8 mL of whole blood was collected in a 1.5 mL EDTA-coated tube, which was gently turned to mix the sample with EDTA. Blood samples were collected in EDTA buffer (8 mM) and then centrifuged at 4° C. 2000 g for 10 minutes. Plasma was pipetted into Micronic tubes on dry ice, and kept at −20° C. or lower until analysis. Blood samples were taken as appropriate, for example from a venflon in the cephalic vein in the front leg for the first 2 hours and then with syringe from the jugular vein for the rest of the time points. The first few drops were allowed to drain from the venflon to avoid heparin saline from the venflon in the sample.
All blood samples were collected into test tubes containing EDTA for stabilisation and kept on ice until centrifugation. Plasma was separated from whole blood by centrifugation and the plasma was stored at −20° C. or lower until analysis.
The plasma was analysed for test substance using LC-MS (Liquid Chromatography-Mass Spectrometry) as known to the person skilled in the art. […] RP-HPLC separation was achieved using a linear gradient of 1:1 acetonitrile/methanol in 1% aqueous formic acid using either: a Phenomenex Onyx Monolithic C18 column (50×2.0 mm) and a flow rate of 0.8 mL/min at 30° C.; or an Agilent Poroshell 120 SB-C18 column (50×2.1 mm, 2.7 μm) at a flow rate of 0.4 mL/min at 60° C. The mass spectrometer was operated in either positive ionization SIM mode or positive ionization PRM mode.
For each individual animal, a plasma concentration-time profile was analysed by a non-compartmental model in Pharsight Phoenix WinNonLin ver.

[2] = 0% HSA, read-out: hGIPR, CRE Luc 0% HSA EC50
[3] = hGIPR, CRE Luc 1% HSA EC50, 1% HSA
[4] = 0% HSA, read-out: hGLP-1R, CRE Luc 0% HSA EC50
[5] = hGLP-1R, CRE Luc 1% HSA EC50, 1% HSA

Compound	pEC50 (human GIP receptor; [2])	pEC50 (human GIP receptor; [3])	pEC50 (human GLP-1 receptor; [4])	pEC50 (human GLP-1 receptor; [5])	AUC/Dose ([1]; dog, in vivo, po)	Cmax/Dose ([1]; dog, in vivo, po)	Tmax ([1]; male, Beagle, dog, in vivo, po) [h]	half-life ([1]; male, Beagle, dog, in vivo, po) [h]	AUC/Dose ([1]; oral tablet, SNAC 300 mg, test substance 3 mg, Beagle dogs, arithmetic mean) [kg·h/L]	Tmax ([1]; dog, in vivo, po) [h]	t1/2 ([1]; dog, in vivo, po) [h]
CC[C@H](C)[C@H](NC(=O)[C@H](Cc1ccccc1)NC(=O)[C@H](CCC(=O)O)NC(=O)[C@H](Cc1c[nH]cn1)NC(=O)[C@H](C)NC(=O)[C@H](C)NC(=O)[C@H](CCC(N)=O)NC(=O)[C@H](CCCCNC(=O)[C@@H](N)CCCCNC(=O)[C@@H](N)CCCCNC(=O)CC[C@H](NC(=O)CCCCCCCCCCCCCCCCC(=O)O)C(=O)O)NC(=O)[C@H](CCC(=O)O)NC(=O)[C@H](CC(C)C)NC(=O)[C@H](CC(C)C)NC(=O)[C@@H](NC(=O)[C@H](CO)NC(=O)[C@H](Cc1ccc(O)cc1)NC(=O)[C@H](CC(=O)O)NC(=O)[C@H](CO)NC(=O)[C@@H](NC(=O)[C@H](Cc1ccccc1)NC(=O)[C@@H](NC(=O)CNC(=O)[C@H](CCC(=O)O)NC(=O)C(C)(C)NC(=O)[C@@H](N)Cc1ccc(O)cc1)[C@@H](C)O)[C@@H](C)O)[C@@H](C)CC)C(=O)N[C@@H](CC(N)=O)C(=O)N[C@@H](Cc1c[nH]c2ccccc12)C(=O)N[C@@H](CC(C)C)C(=O)N[C@@H](CC(C)C)C(=O)N[C@@H](C)C(=O)NCC(=O)NCC(=O)N1CCC[C@H]1C(=O)N[C@@H](CO)C(=O)N[C@@H](CO)C(=O)NCC(=O)N[C@@H](C)C(=O)N1CCC[C@H]1C(=O)N1CCC[C@H]1C(=O)N1CCC[C@H]1C(=O)N[C@@H](CO)C(=O)O [Compound 26] (H-Y[Aib]EGTFTSDYSILLEK([εLys-εLys-γGlu-C18 diacid])QAAHEFINWLLAGGPSSGAPPPS-OH)	11.31	9.82	11.13	9.23	27.4* kg * h/L	0.49* kg/L	1.2	70			
CC[C@H](C)[C@H](NC(=O)[C@H](Cc1ccccc1)NC(=O)[C@H](CCC(=O)O)NC(=O)[C@H](CCCNC(=N)N)NC(=O)[C@H](C)NC(=O)[C@H](C)NC(=O)[C@H](CCC(N)=O)NC(=O)[C@H](CCC(=O)O)NC(=O)[C@H](CCC(=O)O)NC(=O)[C@H](CC(C)C)NC(=O)[C@H](CC(C)C)NC(=O)[C@@H](NC(=O)[C@H](CO)NC(=O)[C@H](Cc1ccc(O)cc1)NC(=O)[C@H](CC(=O)O)NC(=O)[C@H](CO)NC(=O)[C@@H](NC(=O)[C@H](Cc1ccccc1)NC(=O)[C@@H](NC(=O)CNC(=O)[C@H](CCC(=O)O)NC(=O)C(C)(C)NC(=O)[C@@H](N)Cc1ccc(O)cc1)[C@@H](C)O)[C@@H](C)O)[C@@H](C)CC)C(=O)N[C@@H](CCC(=O)O)C(=O)N[C@@H](Cc1c[nH]c2ccccc12)C(=O)N[C@@H](CC(C)C)C(=O)N[C@@H](CC(C)C)C(=O)N[C@@H](C)C(=O)NCC(=O)NCC(=O)N1CCC[C@H]1C(=O)N[C@@H](CO)C(=O)N[C@@H](CCCCNC(=O)[C@@H](N)CCCCNC(=O)[C@@H](N)CCCCNC(=O)CC[C@H](NC(=O)CCCCCCCCCCCCCCCCC(=O)O)C(=O)O)C(=O)NCC(=O)N[C@@H](C)C(=O)N1CCC[C@H]1C(=O)N1CCC[C@H]1C(=O)N1CCC[C@H]1C(=O)N[C@@H](CO)C(=O)O [Compound 43] (H-Y[Aib]EGTFTSDYSILLEEQAAREFIEWLLAGGPSK([εLys-εLys-γGlu-C18 diacid])GAPPPS-OH)	11.25	9.35	11.40	9.44			1.5	131	21.4		
CC[C@H](C)[C@H](NC(=O)[C@H](Cc1ccccc1)NC(=O)[C@H](CCC(=O)O)NC(=O)[C@H](CCC(=O)O)NC(=O)[C@H](C)NC(=O)[C@H](C)NC(=O)[C@H](CCC(N)=O)NC(=O)[C@H](CCCCNC(=O)[C@@H](N)CCCCNC(=O)[C@@H](N)CCCCNC(=O)CC[C@H](NC(=O)CCCCCCCCCCCCCCCCC(=O)O)C(=O)O)NC(=O)[C@H](CCC(=O)O)NC(=O)[C@H](CC(C)C)NC(=O)[C@H](CC(C)C)NC(=O)[C@@H](NC(=O)[C@H](CO)NC(=O)[C@H](Cc1ccc(O)cc1)NC(=O)[C@H](CC(=O)O)NC(=O)[C@H](CO)NC(=O)[C@@H](NC(=O)[C@H](Cc1ccccc1)NC(=O)[C@@H](NC(=O)CNC(=O)[C@H](CCC(=O)O)NC(=O)C(C)(C)NC(=O)[C@@H](N)Cc1ccc(O)cc1)[C@@H](C)O)[C@@H](C)O)[C@@H](C)CC)C(=O)N[C@@H](CC(N)=O)C(=O)N[C@@H](Cc1c[nH]c2ccccc12)C(=O)N[C@@H](CC(C)C)C(=O)N[C@@H](CC(C)C)C(=O)N[C@@H](C)C(=O)NCC(=O)NCC(=O)N1CCC[C@H]1C(=O)N[C@@H](CO)C(=O)N[C@@H](CO)C(=O)NCC(=O)N[C@@H](C)C(=O)N1CCC[C@H]1C(=O)N1CCC[C@H]1C(=O)N1CCC[C@H]1C(=O)N[C@@H](CO)C(=O)O [Compound 25] (H-Y[Aib]EGTFTSDYSILLEK([εLys-εLys-γGlu-C18 diacid])QAAEEFINWLLAGGPSSGAPPPS-OH)	11.14	9.58	10.81	9.13	15.2 kg·h/L	0.30 kg/L	1.8	43			
CC[C@H](C)[C@H](NC(=O)[C@H](Cc1ccccc1)NC(=O)[C@H](CCC(=O)O)NC(=O)[C@H](CCCNC(=N)N)NC(=O)[C@H](C)NC(=O)[C@H](C)NC(=O)[C@H](CCC(N)=O)NC(=O)[C@H](CCCCNC(=O)[C@@H](N)CCCCNC(=O)[C@@H](N)CCCCNC(=O)CC[C@H](NC(=O)CCCCCCCCCCCCCCCCC(=O)O)C(=O)O)NC(=O)[C@H](CCC(=O)O)NC(=O)[C@H](CC(C)C)NC(=O)[C@H](CC(C)C)NC(=O)[C@@H](NC(=O)[C@H](CO)NC(=O)[C@H](Cc1ccc(O)cc1)NC(=O)[C@H](CC(=O)O)NC(=O)[C@H](CO)NC(=O)[C@@H](NC(=O)[C@H](Cc1ccccc1)NC(=O)[C@@H](NC(=O)CNC(=O)[C@H](CCC(=O)O)NC(=O)C(C)(C)NC(=O)[C@@H](N)Cc1ccc(O)cc1)[C@@H](C)O)[C@@H](C)O)[C@@H](C)CC)C(=O)N[C@@H](CC(N)=O)C(=O)N[C@@H](Cc1c[nH]c2ccccc12)C(=O)N[C@@H](CC(C)C)C(=O)N[C@@H](CC(C)C)C(=O)N[C@@H](C)C(=O)NCC(=O)NCC(=O)N1CCC[C@H]1C(=O)N[C@@H](CO)C(=O)N[C@@H](CO)C(=O)NCC(=O)N[C@@H](C)C(=O)N1CCC[C@H]1C(=O)N1CCC[C@H]1C(=O)N1CCC[C@H]1C(=O)N[C@@H](CO)C(=O)O [Compound 15] (H-Y[Aib]EGTFTSDYSILLEK([εLys-εLys-γGlu-C18 diacid])QAAREFINWLLAGGPSSGAPPPS-OH)										2.0	46
